What all share (assay): DTP human tumour cell line panel, 48 h
Assay [1] deals with TK-10 renal.
Assay [2] relates to KM12 colon.
The test system of assay [3] is EKVX NSCLC.
For assay [4], the system named is MDA-MB-435.
In assay [5] the test system is HCT-15 colon.
Assay [6] relates to NCI/ADR-RES ovarian.
The subject of assay [7] is SK-OV-3 ovarian.
In assay [8] the test system is OVCAR-3 ovarian.
Assay [9] deals with HOP-92 NSCLC.
Assay [10] deals with CCRF-CEM leukemia.

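Dose response: 5 concentrations. Exposure: 48 h. Format: 96-well plates. Endpoint: linear interpolation; highest concentration if not reached. GI50 marks 50% less growth. TGI denotes the concentration required for complete inhibition of growth.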

One may read the GI50 as the concentration that inhibits growth by half. As a reminder, the TGI is the concentration at which net growth stops. A low value points to greater sensitivity of the cells.

For `CNNC(=N\S(=O)(=O)c1cc(C(=O)Nc2ccc(Cl)cc2)c(Cl)cc1SCc1ccccc1)/N=C/c1ccc([N+](=O)[O-])s1`, the GI50 is above 100 µM in assay [1]; above 100 µM in assay [2]; above 54.4 µM in assay [3]; 23.4 µM in [4]; 22.5 µM in assay [5]; above 100 µM in assay [6]. Also, the GI50 was above 100 µM in assay [7], above 100 µM in assay [8], 4.54 µM in [9] and above 85.1 µM in assay [10]. Moreover, the TGI in assay [1], in [2], in assay [3], in assay [4], in [5] and in [6] was above 100 µM each time. Further, the total growth inhibition concentration (TGI) in assay [7] was above 100 µM; in assay [8], above 100 µM; in assay [9] it was 62.2 µM; in assay [10], above 100 µM.
Turning to `c1ccc(-c2nnc(Nc3ccc4c(c3)OCCO4)o2)c(NCc2ccncc2)c1`, the GI50 in assay [1] was 1.98 µM; in [2], 0.0327 µM; in [3], 0.105 µM; in [4], below 0.01 µM; in assay [5] it was 0.0369 µM; in assay [6], 0.0162 µM. The GI50 in assay [7] was 0.0191 µM; in assay [8], 0.021 µM; in assay [9] it was 0.286 µM; in assay [10] it was 0.033 µM. The TGI in assay [1] is above 81.8 µM; in [2] it was 0.435 µM; in [3] it was above 100 µM; in assay [4] it was 0.0171 µM; in [5] it was above 100 µM; in assay [6], above 51.3 µM. Besides, the TGI was 0.0856 µM in [7], 0.0504 µM in [8], 6.87 µM in assay [9] and above 100 µM in assay [10].
On to `O=C(O)C[O][Sb][O]CC(=O)O`, for which the GI50 in assay [1], in assay [2], in assay [3], in assay [4], in assay [5] and in assay [6] was above 100 µM each time. The GI50 in assay [8], in [9] and in [10] was above 100 µM throughout. Besides, the TGI in [1], in assay [2], in [3], in [4], in [5] and in [6] was above 100 µM throughout. Besides, the TGI in assay [8], in [9] and in assay [10] was above 100 µM in each case.
Take `CC1=CC2=C(C(N)=O)C(=O)OC2(C)C(c2ccccc2)C1` (stereo not drawn): the TGI in assay [1], in assay [2], in assay [3], in assay [4], in [5] and in assay [6] was above 100 µM in each case. Also, the TGI in [7], in [8] and in [9] was above 100 µM throughout.
With `Nc1c(C(=O)c2cccc(C#CCN3CCOCC3)c2)cnn1-c1ccc(F)cc1`, the GI50 in assay [1] was above 23.4 µM; in assay [2] it was 8.29 µM; in [4] it was 4.41 µM; in assay [5], 11.2 µM; in assay [6], 8.23 µM; in assay [7], above 25 µM. Moreover, the GI50 in assay [8] was above 23.1 µM; in assay [9] it was above 13 µM. In addition, the TGI is above 25 µM in assay [1]; above 25 µM in [2]; above 17.4 µM in assay [4]; above 25 µM in assay [5]; above 25 µM in [6]; above 25 µM in [7]. The TGI in assay [8] and in assay [9] was above 25 µM each time.
For `CO/N=C(/COc1c(-c2ccccc2)oc2ccccc2c1=O)c1ccc(OC)cc1`, the GI50 in [1] was above 100 µM; in assay [2], 56.1 µM; in assay [3], above 100 µM; in assay [4] it was 30.7 µM; in assay [5], above 100 µM; in [6], 76.2 µM. Further, the GI50 is above 100 µM in [7], above 100 µM in assay [8] and 60 µM in assay [10]. In addition, the TGI in assay [1], in assay [2], in assay [3], in [4], in [5] and in assay [6] was above 100 µM throughout. Also, the TGI in [7], in assay [8] and in assay [10] was above 100 µM each time.
As to `NC(CSc1nc2ccccn2c1[N+](=O)[O-])C(=O)O` (stereo not drawn), the TGI in assay [1], in assay [2], in assay [3], in assay [4], in assay [5] and in assay [6] was above 100 µM in each case. In addition, the TGI in [7], in [8] and in assay [9] was above 100 µM each time.
Turning to `CCN(C(=O)CCl)C(C)(C)C(SSSC(c1ccc(Cl)cc1)C(C)(C)N(CC)C(=O)CCl)c1ccc(Cl)cc1` (stereo not drawn), the GI50 is 2.5 µM in assay [1]; 10.3 µM in assay [2]; 2.14 µM in assay [4]; 2.84 µM in assay [5]; 8.31 µM in assay [6]; 15.3 µM in assay [7]. The results for the GI50 in assay [8], in assay [9] and in [10] were 8.46 µM, 1.29 µM and 2.45 µM, respectively. The TGI in assay [1] was determined as 7.92 µM; in assay [2], 23 µM; in assay [4], 5.49 µM; in [5] it was 12.8 µM; in [6], 24 µM; in assay [7], 31.5 µM. Besides, the TGI in assay [8] was 21.6 µM; in [9] it was 8.6 µM; in assay [10], 5.93 µM.

(Values after PubChem BioAssay (NCI).)
